Results reported in ChEMBL document CHEMBL1153520, “A multivalent approach to the design and discovery of orally efficacious 5-HT4 receptor agonists” (J Med Chem, 2009).
Calls of active or inactive are those of the source. No cut-off for these calls is given here.

Tests used:
[1] = molecular target: T1, 5-hydroxytryptamine receptor 4 (Homo sapiens, UniProt Q13639); assay: Displacement of [H]GR-113808 from human 5HT4C receptor expressed in HEK293 cells by liquid scintillation counting; assay type: cell-based
T1 sequence (Q13639 whole entry): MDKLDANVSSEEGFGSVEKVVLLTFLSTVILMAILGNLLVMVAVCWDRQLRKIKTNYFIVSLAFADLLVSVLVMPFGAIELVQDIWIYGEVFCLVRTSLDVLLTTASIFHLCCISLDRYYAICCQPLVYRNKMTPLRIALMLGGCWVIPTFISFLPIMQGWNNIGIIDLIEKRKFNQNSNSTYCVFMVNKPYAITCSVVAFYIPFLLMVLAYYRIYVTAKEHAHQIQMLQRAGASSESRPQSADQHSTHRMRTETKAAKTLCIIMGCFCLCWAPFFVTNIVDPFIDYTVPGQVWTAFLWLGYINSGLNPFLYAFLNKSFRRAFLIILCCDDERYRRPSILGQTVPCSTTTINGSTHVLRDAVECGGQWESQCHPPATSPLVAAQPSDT

Homo sapiens = organism: Homo sapiens; assay: Selectivity ratio of Ki for human 5HT3A receptor to Ki for human 5HT4C receptor
[2] = molecular target: T1, 5-hydroxytryptamine receptor 4; assay: Agonist activity at human 5HT4C receptor expressed in HEK293 cells assessed as accumulation of cAMP by flash plate adenylyl cyclase activation assay; assay type: functional, cell-based
[3] = molecular target: T1, 5-hydroxytryptamine receptor 4; assay: Intrinsic activity at human 5HT4C receptor expressed in HEK293 cells assessed as accumulation of cAMP by flash plate adenylyl cyclase activation assay relative to serotonin; assay type: functional, cell-based
hERG (KCNH2) = hERG (KCNH2) (Homo sapiens, UniProt Q12809); assay: Inhibition of human ERG potassium channel expressed in CHO-K1 cells at 3 uM by whole cell voltage clamp assay; assay type: cell-based; details: CHO-K1 cells expressing human ERG potassium channel
Chain of hERG (KCNH2) (Q12809 whole entry): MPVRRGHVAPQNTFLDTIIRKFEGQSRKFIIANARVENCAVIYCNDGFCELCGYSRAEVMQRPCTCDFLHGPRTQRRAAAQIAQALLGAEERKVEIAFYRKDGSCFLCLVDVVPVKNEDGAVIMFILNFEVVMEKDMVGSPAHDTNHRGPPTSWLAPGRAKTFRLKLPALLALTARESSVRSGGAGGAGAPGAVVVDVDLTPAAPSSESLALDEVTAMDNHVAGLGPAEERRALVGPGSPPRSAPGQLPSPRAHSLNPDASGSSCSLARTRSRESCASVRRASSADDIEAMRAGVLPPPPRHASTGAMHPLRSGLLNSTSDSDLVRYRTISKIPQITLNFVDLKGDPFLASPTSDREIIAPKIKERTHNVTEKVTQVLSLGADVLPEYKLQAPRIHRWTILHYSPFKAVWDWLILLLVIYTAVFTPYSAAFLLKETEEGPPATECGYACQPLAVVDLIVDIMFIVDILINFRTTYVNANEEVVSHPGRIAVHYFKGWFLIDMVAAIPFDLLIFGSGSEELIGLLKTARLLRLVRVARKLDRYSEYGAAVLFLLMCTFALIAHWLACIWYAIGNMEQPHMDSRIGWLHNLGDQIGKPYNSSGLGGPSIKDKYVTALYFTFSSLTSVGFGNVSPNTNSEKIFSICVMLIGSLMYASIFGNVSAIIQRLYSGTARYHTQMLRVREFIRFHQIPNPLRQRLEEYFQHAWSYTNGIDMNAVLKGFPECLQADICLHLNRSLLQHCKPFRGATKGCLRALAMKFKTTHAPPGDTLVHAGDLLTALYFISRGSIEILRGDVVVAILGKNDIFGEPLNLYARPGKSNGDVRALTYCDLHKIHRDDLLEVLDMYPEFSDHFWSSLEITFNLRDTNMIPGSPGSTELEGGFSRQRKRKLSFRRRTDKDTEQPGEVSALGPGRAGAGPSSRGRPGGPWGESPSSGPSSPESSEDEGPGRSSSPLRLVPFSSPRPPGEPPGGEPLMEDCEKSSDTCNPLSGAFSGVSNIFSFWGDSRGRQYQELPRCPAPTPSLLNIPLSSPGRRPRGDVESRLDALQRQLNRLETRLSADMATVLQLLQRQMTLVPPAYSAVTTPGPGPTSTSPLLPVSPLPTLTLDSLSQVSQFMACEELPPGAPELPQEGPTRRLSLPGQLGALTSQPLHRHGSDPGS

[4] = Permeability across human Caco-2 cells assessed as permeability coefficient; assay type: ADME, cell-based; details: read-out: permeability
[5] = AUC (0 to t) in Sprague-Dawley rat at 5 mg/kg, po; assay type: ADME, organism-based; design: dose 5 mg/kg, route oral; details: plasma
[6] = Cmax in Sprague-Dawley rat at 5 mg/kg, po; assay type: ADME, organism-based; design: dose 5 mg/kg, route oral; details: in vivo
[7] = Half life in Sprague-Dawley rat at 5 mg/kg, po; assay type: ADME, organism-based; design: dose 5 mg/kg, route oral; details: in vivo
[8] = Oral bioavailability in Sprague-Dawley rat at 5 mg/kg, po; assay type: ADME, organism-based; details: in vivo
[9] = Cmax in Beagle dog at 2 mg/kg, po; assay type: ADME, organism-based, Canis lupus familiaris; design: dose 2 mg/kg, route oral; details: in vivo
[10] = Oral bioavailability in Beagle dog at 2 mg/kg, po; assay type: ADME, organism-based, Canis lupus familiaris; details: in vivo
[11] = molecular target: T2, 5-hydroxytryptamine receptor 1A (Homo sapiens) (UniProt P08908); assay: Inhibition of 5HT1A receptor at 10 uM
T2 sequence (whole entry): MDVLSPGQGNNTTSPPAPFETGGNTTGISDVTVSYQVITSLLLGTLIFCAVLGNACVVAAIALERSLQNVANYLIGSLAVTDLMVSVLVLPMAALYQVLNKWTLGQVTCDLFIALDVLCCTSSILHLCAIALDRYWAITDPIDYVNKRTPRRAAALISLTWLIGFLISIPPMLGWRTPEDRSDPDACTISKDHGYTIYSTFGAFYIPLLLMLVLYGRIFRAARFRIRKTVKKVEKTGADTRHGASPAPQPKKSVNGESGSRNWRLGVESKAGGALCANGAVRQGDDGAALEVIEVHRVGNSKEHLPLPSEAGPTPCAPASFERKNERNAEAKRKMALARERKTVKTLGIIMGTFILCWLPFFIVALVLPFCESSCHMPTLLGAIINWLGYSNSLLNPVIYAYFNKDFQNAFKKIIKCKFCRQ

[12] = molecular target: T3, 5-hydroxytryptamine receptor 2C (Homo sapiens) (UniProt P28335); assay: Inhibition of 5HT1C receptor at 10 uM
T3 sequence (whole entry): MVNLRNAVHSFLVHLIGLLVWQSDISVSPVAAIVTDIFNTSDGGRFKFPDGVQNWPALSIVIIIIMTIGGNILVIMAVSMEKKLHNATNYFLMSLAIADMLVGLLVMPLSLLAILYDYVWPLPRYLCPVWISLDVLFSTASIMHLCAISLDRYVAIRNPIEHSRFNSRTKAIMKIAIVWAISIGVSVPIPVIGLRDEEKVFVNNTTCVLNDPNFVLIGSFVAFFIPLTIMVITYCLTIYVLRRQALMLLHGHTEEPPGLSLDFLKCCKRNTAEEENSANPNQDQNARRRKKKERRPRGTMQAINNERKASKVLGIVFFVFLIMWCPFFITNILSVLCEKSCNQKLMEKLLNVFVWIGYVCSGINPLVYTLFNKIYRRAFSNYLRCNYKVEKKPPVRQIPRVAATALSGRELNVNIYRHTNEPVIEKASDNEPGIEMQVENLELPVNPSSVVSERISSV

[13] = molecular target: 5-hydroxytryptamine receptor 1D (Homo sapiens) (UniProt P28221); assay: Inhibition of 5HT1D receptor at 10 uM
Chain of 5-hydroxytryptamine receptor 1D (Homo sapiens) (P28221 whole entry): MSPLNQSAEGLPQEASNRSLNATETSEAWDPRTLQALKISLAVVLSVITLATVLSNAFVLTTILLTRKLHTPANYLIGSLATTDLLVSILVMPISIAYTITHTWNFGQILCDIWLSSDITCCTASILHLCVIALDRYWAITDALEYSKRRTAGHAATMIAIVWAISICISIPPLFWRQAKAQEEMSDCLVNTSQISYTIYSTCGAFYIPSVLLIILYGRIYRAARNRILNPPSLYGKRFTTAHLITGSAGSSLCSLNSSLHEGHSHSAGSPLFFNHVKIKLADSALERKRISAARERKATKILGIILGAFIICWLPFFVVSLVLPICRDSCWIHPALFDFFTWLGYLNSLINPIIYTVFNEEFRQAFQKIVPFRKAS

[14] = molecular target: 5-hydroxytryptamine receptor 2A (Homo sapiens) (UniProt P28223); assay: Inhibition of 5HT2A receptor at 10 uM
Chain of 5-hydroxytryptamine receptor 2A (Homo sapiens) (P28223 whole entry): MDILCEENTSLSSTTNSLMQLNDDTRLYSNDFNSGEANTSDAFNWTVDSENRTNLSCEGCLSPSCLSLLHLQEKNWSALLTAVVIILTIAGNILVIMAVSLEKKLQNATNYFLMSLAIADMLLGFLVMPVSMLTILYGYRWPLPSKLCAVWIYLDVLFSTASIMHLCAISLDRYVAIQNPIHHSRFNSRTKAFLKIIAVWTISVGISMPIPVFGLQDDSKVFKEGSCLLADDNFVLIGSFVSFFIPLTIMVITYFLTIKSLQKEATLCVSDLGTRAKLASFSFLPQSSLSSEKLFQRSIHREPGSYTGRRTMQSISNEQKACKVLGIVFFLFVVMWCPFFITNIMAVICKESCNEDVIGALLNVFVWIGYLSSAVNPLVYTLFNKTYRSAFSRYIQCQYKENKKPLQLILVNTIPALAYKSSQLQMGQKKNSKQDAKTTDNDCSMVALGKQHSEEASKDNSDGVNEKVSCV

[15] = molecular target: 5-hydroxytryptamine receptor 2B (Homo sapiens) (UniProt P41595); assay: Inhibition of 5HT2B receptor at 10 uM
Chain of 5-hydroxytryptamine receptor 2B (Homo sapiens) (P41595 whole entry): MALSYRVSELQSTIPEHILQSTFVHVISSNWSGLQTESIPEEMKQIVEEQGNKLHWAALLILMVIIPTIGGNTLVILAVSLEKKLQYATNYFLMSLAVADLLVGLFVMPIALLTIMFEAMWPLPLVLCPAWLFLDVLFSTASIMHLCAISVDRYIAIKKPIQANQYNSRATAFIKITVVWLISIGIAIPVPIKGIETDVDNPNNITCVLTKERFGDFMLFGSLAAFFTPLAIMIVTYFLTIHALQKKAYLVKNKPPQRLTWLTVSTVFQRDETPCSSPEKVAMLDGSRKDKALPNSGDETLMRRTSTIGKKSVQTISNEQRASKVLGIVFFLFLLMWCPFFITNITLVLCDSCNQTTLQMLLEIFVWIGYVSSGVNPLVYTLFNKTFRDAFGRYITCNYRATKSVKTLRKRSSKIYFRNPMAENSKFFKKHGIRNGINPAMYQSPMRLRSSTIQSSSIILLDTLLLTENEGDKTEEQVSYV

[16] = molecular target: T3, 5-hydroxytryptamine receptor 2C (Homo sapiens); assay: Inhibition of 5HT2C receptor at 10 uM
[17] = molecular target: 5-hydroxytryptamine receptor 5A (Homo sapiens) (UniProt P47898); assay: Inhibition of 5HT5A receptor at 10 uM
Chain of 5-hydroxytryptamine receptor 5A (Homo sapiens) (P47898 whole entry): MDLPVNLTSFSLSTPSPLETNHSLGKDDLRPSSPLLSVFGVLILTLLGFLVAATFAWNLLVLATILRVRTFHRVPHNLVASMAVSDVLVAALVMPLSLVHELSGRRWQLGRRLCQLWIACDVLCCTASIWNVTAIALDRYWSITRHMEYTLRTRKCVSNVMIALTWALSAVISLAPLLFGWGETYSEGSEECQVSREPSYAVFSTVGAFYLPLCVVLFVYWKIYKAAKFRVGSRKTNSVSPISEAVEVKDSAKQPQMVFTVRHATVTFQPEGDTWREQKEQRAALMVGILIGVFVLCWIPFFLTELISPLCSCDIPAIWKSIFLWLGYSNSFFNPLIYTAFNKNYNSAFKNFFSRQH

[18] = molecular target: 5-hydroxytryptamine receptor 6 (Homo sapiens) (UniProt P50406); assay: Inhibition of 5HT6 receptor at 10 uM
Chain of 5-hydroxytryptamine receptor 6 (Homo sapiens) (P50406 whole entry): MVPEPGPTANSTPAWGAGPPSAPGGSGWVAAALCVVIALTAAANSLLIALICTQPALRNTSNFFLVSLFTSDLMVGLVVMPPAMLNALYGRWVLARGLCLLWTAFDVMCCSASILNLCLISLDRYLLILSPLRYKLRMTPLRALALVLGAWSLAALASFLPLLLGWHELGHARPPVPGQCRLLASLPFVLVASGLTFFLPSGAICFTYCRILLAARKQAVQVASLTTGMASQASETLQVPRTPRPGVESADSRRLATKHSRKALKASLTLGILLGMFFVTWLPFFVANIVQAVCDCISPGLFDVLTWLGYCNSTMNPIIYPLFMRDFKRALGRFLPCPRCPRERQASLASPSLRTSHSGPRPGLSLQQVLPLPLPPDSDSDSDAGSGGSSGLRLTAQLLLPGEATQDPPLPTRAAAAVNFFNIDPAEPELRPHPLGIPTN

[19] = molecular target: 5-hydroxytryptamine receptor 7 (Homo sapiens) (UniProt P34969); assay: Inhibition of 5HT7 receptor at 10 uM
Chain of 5-hydroxytryptamine receptor 7 (Homo sapiens) (P34969 whole entry): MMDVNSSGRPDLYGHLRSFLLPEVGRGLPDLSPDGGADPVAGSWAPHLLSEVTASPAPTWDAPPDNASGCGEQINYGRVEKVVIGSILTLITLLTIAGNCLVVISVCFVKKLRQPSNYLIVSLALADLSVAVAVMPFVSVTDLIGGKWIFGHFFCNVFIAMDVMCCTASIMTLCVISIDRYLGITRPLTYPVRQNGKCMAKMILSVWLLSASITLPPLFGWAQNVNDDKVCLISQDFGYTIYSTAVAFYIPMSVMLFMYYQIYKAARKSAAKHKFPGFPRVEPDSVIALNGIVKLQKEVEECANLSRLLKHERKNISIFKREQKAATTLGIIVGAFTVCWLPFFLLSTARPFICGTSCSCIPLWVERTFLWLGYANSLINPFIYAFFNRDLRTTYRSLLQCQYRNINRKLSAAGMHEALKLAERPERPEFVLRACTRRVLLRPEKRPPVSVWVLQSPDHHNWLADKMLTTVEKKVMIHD

Cavia porcellus [20] = assay: Induction of colon longitudinal muscle contraction in sc dosed Duncan Hartley guinea pig; assay type: functional, organism-based; details: Muscle tissue
Rattus norvegicus [21] = assay: Induction of 5HT4 receptor-mediated relaxation of esophagus in iv dosed anesthetized Sprague-Dawley rat by digital sonomicrometry; assay type: functional
Rattus norvegicus [22] = assay: Induction of 5HT4 receptor-mediated relaxation of esophagus in intraduodenal dosed anesthetized Sprague-Dawley rat by digital sonomicrometry; assay type: functional, organism-based
Rattus norvegicus [23] = assay: Induction of 5HT4 receptor-mediated relaxation of esophagus in anesthetized Sprague-Dawley rat at 3 mg/kg, intraduodenally by digital sonomicrometry; assay type: functional, organism-based; design: dose 3 mg/kg
Cavia porcellus [24] = assay: Increase in colonic transit in Duncan Hartley guinea pig colonic transit model assessed as prokinetic activity at 3 mg/kg, sc relative to vehicle treated control; assay type: functional, organism-based; design: dose 3 mg/kg
in vitro = details: rat, liver microsomes

Work on `CC(C)n1c(=O)c(C(=O)N[C@H]2C[C@H]3CC[C@@H](C2)N3C[C@@H](O)CN2CCN(S(C)(=O)=O)CC2)cc2ccccc21` yielded a Ki [1] of 12.6 nM, a Ratio Ki (Homo sapiens) of 7400 and an EC50 [2] of 0.398 nM. For the same molecule, the Intrinsic activity [3] was 94%, the inhibition at 3 µM (hERG (KCNH2)) was 4% and the Papp [4] was 14 ×10⁻⁶ cm/s. For the same molecule, the AUC(0-t) [5] was 200 ng·h/mL, the Cmax [6] was 31 ng/mL and the half-life [7] was 5.2 h. For the same molecule, the bioavailability [8] was 20%, the Cmax [9] was 320 ng/mL and the bioavailability [10] was 63%. It also gave an inhibition [11] of less than 50%, an inhibition [12] of less than 50% and an inhibition [13] of less than 50%. It also gave an inhibition [14] of less than 50%, an inhibition [15] of less than 50% and an inhibition [16] of less than 50%. For the same molecule, the inhibition [17] was less than 50%, the inhibition [18] was less than 50% and the inhibition [19] was less than 50%. For the same molecule, the EC50 (Cavia porcellus [20]) was 2.51 nM, the Activity (Rattus norvegicus [21]) was “Dose-dependent effect” and the ED50 (Rattus norvegicus [21]) was 0.016 mg/kg. For the same molecule, the Activity (Rattus norvegicus [22]) was “Dose-dependent effect”, the Activity (Rattus norvegicus [23]) was “Active” and the Activity (Cavia porcellus [24]) was “Active”. For the same molecule, the half-life (in vitro) was greater than 1.5 h.
